The record followed here is patent publication US12173026B2, “PRMT5 inhibitors” (Merck Sharp & Dohme LLC, priority 2018, dated 2024).

For this test, the system named is symmetric dimethylation of arginine (SDMA) of PRMT5 substrates in MCF-7 cells. The test can be described thus: PRMT5 Cell Target Engagement (TE) Assay. Particulars: Homo sapiens, MCF7, 72 h; MCF-7 cells treated for 3 days; nuclear SDMA by high content imaging; top concentration 10000 nM. It is filed as cell-based. The procedure, abridged: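 MCF-7 cells treated 3 days at 37 °C with 10-point 1:3 titration from 10000 nM top. Fixed cells stained with anti-SDMA antibody plus Alexa488 secondary and Hoechst; nuclear fluorescence quantified by high-content imaging versus DMSO wells. EC50 from 4-parameter fit of percent fluorescence vs log concentration.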
For `Cc1nc(C)c2ccn([C@@H]3O[C@@H]4[C@@H](Oc5ccc6cc(Br)c(N)nc6c5)CC[C@]4(O)[C@H]3O)c2n1` [Example 80, (2R,3R,3aS,6S,6aR)-6-((2-amino-3-bromoquinolin-7-yl)oxy)-2-(2,4-dimethyl-7H-pyrrolo[2,3-d]pyrimidin-7-yl)hexahydro-3aH-cyclopenta[b]furan-3,3a-diol 2,2,2-trifluoroacetate], the EC50 (commonly the concentration at which the effect is half-maximal) was determined as 97 nM. This lies in the double-digit nanomolar range.

Consider `Cc1nc(C)c2ccn([C@@H]3O[C@@H]4[C@H](Cc5ccc6cc(Br)c(N)nc6c5)CC[C@]4(O)[C@H]3O)c2n1` [Example 81, (2R,3R,3aS,6S,6aR)-6-((2-ammo-3-bromoquinolin-7-yl)methyl)-2-(2,4-dimethyl-7H-pyrrolo[2,3-d]pyrimidin-7-yl)hexahydro-3aH-cyclcopenta[b]furan-3,3a-diol], for which a half-maximal effect (EC50) was put at 3.9 nM.

Take `CC(C)c1ncnc2c1ccn2[C@@H]1O[C@@H]2[C@H](Cc3ccc4cc(Br)c(N)nc4c3)CC[C@]2(O)[C@H]1O` [Example 83, (2R,3R,3aS,6S,6aR)-6-((2-amino-3-bromoquinolin-7-yl)methyl)-2-(4-isopropyl-7H-pyrrolo[2,3-d]pyrimidin-7-yl)hexahydro-3aH-cyclopenta[b]furan-3,3a-diol]: the EC50 came out at 41.1 nM. `Cc1ncnc2c1c(F)cn2[C@@H]1O[C@@H]2[C@H](Cc3ccc4cc(Br)c(N)nc4c3)CC[C@]2(O)[C@H]1O` [Example 84, (2R,3R,3aS,6S,6aR)-6-((2-amino-3-bromoquinolin-7-yl)methyl)-2-(5-fluoro-4-methyl-7H-pyrrolo[2,3-d]pyrimidin-7-yl)hexahydro-3aH-cyclopenta[b]furan-3,3a-diol]: the EC50 was 7.5 nM. Against the preceding molecule, the EC50 is about 5.5-fold lower.

With `Nc1nc2cc(O[C@H]3CC[C@@]4(O)[C@@H]3O[C@@H](n3ccc5cncnc53)[C@@H]4O)ccc2cc1Br` [Example 85, (2R,3R,3aS,6S,6aR)-6-((2-amino-3-bromoquinolin-7-yl)oxy)-2-(7H-pyrrolo[2,3-d]pyrimidin-7-yl)hexahydro-3aH-cyclopenta[b]furan-3,3a-diol], the EC50 is 32.4 nM. The molecule `Cc1ncnc2c1ccn2[C@@H]1O[C@@H]2[C@@H](Oc3ccc4cc(F)c(N)nc4c3)CC[C@]2(O)[C@H]1O` [Example 86, (2R,3R,3aS,6S,6aR)-6-((2-amino-3-fluoroquinolin-7-yl)oxy)-2-(4-methyl-7H-pyrrolo[2,3-d]pyrimidin-7-yl)hexahydro-3aH-cyclopenta[b]furan-3,3a-diol] showed an EC50 of 37.5 nM. With `Nc1nc2cc(C[C@@H]3CC[C@@]4(O)[C@@H]3O[C@@H](n3ccc5c(C6CC6)ncnc53)[C@@H]4O)ccc2cc1Br` [Example 87, (2R,3R,3aS,6S,6aR)-6-((2-amino-3-bromoquinolin-7-yl)methyl)-2-(4-cyclopropyl-7H-pyrrolo[2,3-d]pyrimidin-7-yl)hexahydro-3aH-cyclopenta[b]furan-3,3a-diol], the EC50 was 22.9 nM.

`Cc1ncnc2c1ccn2[C@@H]1O[C@@H]2[C@H](Cc3ccc4cc(C(F)(F)F)c(N)nc4c3)CC[C@]2(O)[C@H]1O` [Example 88, (2R,3R,3aS,6S,6aR)-6-((2-amino-3-(trifluoromethyl)quinolin-7-yl)methyl)-2-(4-methyl-7H-pyrrolo[2,3-d]pyrimidin-7-yl)hexahydro-3aH-cyclopenta[b]furan-3,3a-diol] had an EC50 of 25.3 nM. To `Cc1ncnc2c1ccn2[C@@H]1O[C@@H]2[C@@H](Oc3ccc4cc5c(nc4c3)NCC5)CC[C@]2(O)[C@H]1O` [Example 89, (2R,3R,3aS,6S,6aR)-6-((2,3-dihydro-1H-pyrrolo[2,3-b]quinolin-7-yl)oxy)-2-(4-methyl-7H-pyrrolo[2,3-d]pyrimidin-7-yl)hexahydro-3aH-cyclopenta[b]furan-3,3a-diol] belongs 4.4 nM; to `Cc1nc(C)c2ccn([C@@H]3O[C@@H]4[C@H](Cc5ccc6cc(F)c(N)nc6c5)CC[C@]4(O)[C@H]3O)c2n1` [Example 90, (2R,3R,3aS,6S,6aR)-6-((2-amino-3-fluoroquinolin-7-yl)methyl)-2-(2,4-dimethyl-7H-pyrrolo[2,3-d]pyrimidin-7-yl)hexahydro-3aH-cyclopenta[b]furan-3,3a-diol], 42.2 nM. To `Cc1nc(C)c2ccn([C@@H]3O[C@@H]4[C@H](Cc5ccc6cc(Cl)c(N)nc6c5)CC[C@]4(O)[C@H]3O)c2n1` [Example 91, (2R,3R,3aS,6S,6aR)-6-((2-amino-3-chloroquinolin-7-yl)methyl)-2-(2,4-dimethyl-7H-pyrrolo[2,3-d]pyrimidin-7-yl)hexahydro-3aH-cyclopenta[b]furan-3,3a-diol] belongs 6.3 nM; to `CNc1ncnc2c1ccn2[C@@H]1O[C@@H]2[C@H](Cc3ccc4cc(Br)c(N)nc4c3)CC[C@]2(O)[C@H]1O` [Example 92], 9.9 nM. To `CNc1ncnc2c1ccn2[C@@H]1C[C@H](COc2ccc3cc(Br)c(N)nc3c2)[C@@](C)(O)[C@H]1O` [Example 93, (1R,2S,3R,5R)-5-(((2-amino-3-bromoquinolin-7-yl)oxy)methyl)-1-methyl-3-(4-(methylamino)-7H-pyrrolo[2,3-d]pyrimidin-7-yl)cyclopentane-1,2-diol] belongs 3.5 nM; to `CNc1ncnc2c1ccn2[C@@H]1O[C@@H]2[C@@H](Oc3ccc4cc(Br)c(N)nc4c3)CC[C@]2(O)[C@H]1O` [Example 94, (2R,3R,3aS,6S,6aR)-6-((2-amino-3-bromoquinolin-7-yl)oxy)-2-(4-(methylamino)-7H-pyrrolo[2,3-d]pyrimidin-7-yl)hexahydro-3aH-cyclopenta[b]furan-3,3a-diol], 5.3 nM. Consider `CNc1ncnc2c1ccn2[C@@H]1O[C@@H]2[C@H](Cc3ccc4cc(F)c(N)nc4c3)CC[C@]2(O)[C@H]1O` [Example 95, (2R,3R,3aS,6S,6aR)-6-((2-amino-3-fluoroquinolin-7-yl)methyl)-2-(4-(methylamino)-7H-pyrrolo[2,3-d]pyrimidin-7-yl)hexahydro-3aH-cyclopenta[b]furan-3,3a-diol], for which the EC50 stood at 47 nM.

`CNc1ncnc2c1c(F)cn2[C@@H]1O[C@@H]2[C@H](Cc3ccc4cc(Br)c(N)nc4c3)CC[C@]2(O)[C@H]1O` [Example 96, (2R,3R,3aS,6S,6aR)-6-((2-amino-3-bromoquinolin-7-yl)methyl)-2-(5-fluoro-4-(methylamino)-7H-pyrrolo[2,3-d]pyrimidin-7-yl)hexahydro-3aH-cyclopenta[b]furan-3,3a-diol] showed an EC50 of 11.1 nM.

The molecule `CNc1ncnc2c1ccn2[C@@H]1C[C@@H]2[C@H](Cc3ccc4cc(Br)c(N)nc4c3)CC[C@]2(O)[C@H]1O` [Example 97, (1S,2R,3aR,4S,6aR)-4-((2-amino-3-bromoquinolin-7-yl)methyl)-2-(4-(methylamino)-7H-pyrrolo[2,3-d]pyrimidin-7-yl)hexahydropentalene-1,6a(1H)-diol] registered a half-maximal effective concentration (EC50) of 1.3 nM. To `C[C@]1(COc2ccc3cccnc3c2)O[C@@H](n2ccc3c(N)ncnc32)[C@H](O)[C@@H]1O` [Example 98, (2R,3S,4R,5R)-5-(4-amino-7H-pyrrolo[2,3-d]pyrimidin-7-yl)-2-methyl-2-((quinolin-7-yloxy)methyl)tetrahydrofuran-3,4-diol] belongs 272 nM. For `C[C@@]1(O)[C@@H](COc2ccc3cccnc3c2)O[C@@H](n2ccc3c(N)ncnc32)[C@@H]1O` [Example 99, (2R,3S,4R,5R)-5-(4-amino-7H-pyrrolo[2,3-d]pyrimidin-7-yl)-3-methyl-2-((quinolin-7-yloxy)methyl)tetrahydrofuran-3,4-diol], the EC50 came to 202 nM. `C[C@]1(COc2ccc3cc(Br)c(N)nc3c2)C[C@@H](n2ccc3c(N)ncnc32)[C@H](O)[C@@H]1O` [Example 100, (1S,2R,3R,5R)-3-(((2-amino-3-bromoquinolin-7-yl)oxy)methyl)-5-(4-amino-7H-pyrrolo[2,3-d]pyrimidin-7-yl)-3-methylcyclopentane-1,2-diol]: the EC50 is 7.4 nM. As for `C[C@]1(COc2ccc3ccc(N)nc3c2)C[C@@H](n2ccc3c(N)ncnc32)[C@H](O)[C@@H]1O` [Example 101, (1S,2R,3R,5R)-5-(4-amino-7H-pyrrolo[2,3-d]pyrimidin-7-yl)-3-(((2-aminoquinolin-7-yl)oxy)methyl)-3-methylcyclopentane-1,2-diol], a half-maximal response (EC50) required 1 nM. To `C[C@@]1(O)[C@@H](CCc2ccc3cc(Br)c(N)nc3c2)C[C@@H](n2ccc3c(N)ncnc32)[C@@H]1O` [Example 103, (1R,2S,3R,5S)-5-(2-(2-amino-3-bromoquinolin-7-yl)ethyl)-3-(4-amino-7H-pyrrolo[2,3-d]pyrimidin-7-yl)-1-methylcyclopentane-1,2-diol] belongs 12.4 nM; to `Nc1ccc2ccc(O[C@H]3CC[C@@]4(O)[C@@H]3O[C@@H](n3ccc5c(N)ncnc53)[C@@H]4O)cc2n1` [Example 104, (2R,3R,3aS,6S,6aR)-2-(4-amino-7H-pyrrolo[2,3-d]pyrimidin-7-yl)-6-((2-aminoquinolin-7-yl)oxy)hexahydro-2H-cyclopenta[b]furan-3,3a-diol], 7 nM. Molecule `C[C@@]1(O)[C@@H](COc2ccc3ccc(N)nc3c2)C[C@@H](n2ccc3cncnc32)[C@@H]1O` [Example 105, (1R,2S,3R,5R)-5-(((2-aminoquinolin-7-yl)oxy)methyl)-1-methyl-3-(7H-pyrrolo[2,3-d]pyrimidin-7-yl)cyclopentane-1,2-diol] showed an EC50 of 0.9 nM. To `Cc1cc2ccc(OC[C@H]3C[C@@H](n4ccc5c(C)ncnc54)[C@H](O)[C@]3(C)O)cc2nc1N` [Example 106, (1R,2S,3R,5R)-5-(((2-amino-3-methylquinolin-7-yl)oxy)methyl)-1-methyl-3-(4-methyl-7H-pyrrolo[2,3-d]pyrimidin-7-yl)cyclopentane-1,2-diol] belongs 0.5 nM; to `Cc1ncnc2c1ccn2[C@@H]1O[C@@H]2[C@H](Cc3ccc4ccc(N)nc4c3)CC[C@]2(O)[C@H]1O` [Example 107, (2R,3R,3aS,6S,6aR)-6-((2-aminoquinolin-yl)methyl)-2-(4-methyl-7H-pyrrolo[2,3-d]pyrimidin-7-yl)hexahydro-2H-cyclopenta[b]furan-3,3a-diol], 0.5 nM.
